In data set [1] the test system is H446 cells. In words: Clonogenic assay. The following applies: 0.5 µM PARPi 72 h and/or 12.5 kBq [177Lu]Lu-DOTA-TOC 24 h, colonies after 7 days, mean of 2 independent experiments. The format is cell-based, human. How it is done:
H446 cells were seeded in 6-well plates 48 h prior to the experiment. […] Following treatment, compounds were removed, and fresh medium was added. After 7 days, colonies were fixed with cold methanol, stained with 5% crystal violet in PBS and subsequently counted. Survival fractions were calculated by dividing the plating efficiency as counted colonies divided by seeded cells of the respective treatment group through the plating efficiency of the untreated control group.

For data set [2], the system named is H69 xenografts. The experiment in a line: In vivo treatment study, single PRRT dose. More on the design: species or system athymic nude mice. The following applies: for tumor doubling time: PARPi 10 mg/kg i.p. days 1–5 and 8–12, PRRT ~40 MBq single dose on day 3, untreated 3.6 days; for time after start of treatment to mean tumor volume of 400 mm^3: untreated 10 days. How it is done: Authorization for all animal experiments was obtained from the Regierung von Oberbayern. Mice were housed under specific-pathogen free conditions with access to mouse chow and water ad libitum. […] Animals were regularly monitored as defined in the license.
Mice in the PARPi and combination therapy groups received daily i.p. injections of PARPi on days 1–5 and 8–12 at a dose of 10 mg/kg. […] Length, width and depth of the subcutaneous tumors were measured daily using a caliper and tumor volume was calculated using the ellipsoid formula. Mice were weighed regularly after start of the treatment. Mice were euthanized when they reached pre-defined criteria. […] In the H69 cohort, one animal per group was euthanized 3 days after PRRT (or equivalent time) and tumor, bone and kidney tissues were processed for histopathology.

The subject of data set [3] is H446 cells. In words: Cell viability, AlamarBlue HS assay. The following applies: Homo sapiens, NCI-H446, PARPi alone for 72 h, 3 independent experiments. The format is cell-based. How it is done:
(§1) Cell viability was determined using the AlamarBlue high sensitivity (HS) assay (Thermo Fisher Scientific, #A50101). 5,000 cells per well were seeded in 96-well black clear F-bottom plates (H446) or 96-well black clear V-bottom plates (H69). H69 suspension cells were centrifuged and resuspended for each washing step. […] All wells, including untreated wells, contained 0.5% (v/v) DMSO throughout the assay. 96 h after seeding, medium was removed and resazurin (AlamarBlue HS) solution was added to each well at a final concentration of 10% (v/v) and incubated for 1 h at 37 °C before fluorescence was measured using a Biotek Synergy HT plate reader (Excitation: 540/35 nm, Emission: 590/20 nm). Relative viability was calculated in relation to “untreated” wells. We carried out three biological repeats with 3–6 technical replicates per plate. IC50-values were computed by applying the nonlinear regression function (Dose–response – Inhibition; Inhibitor vs. normalized response) in GraphPad Prism 9.
(The colour change of resazurin is a common sign of viable cells or microbes.)

The next data set deals with H69 cells. In words: Cell viability, AlamarBlue HS assay. The format is cell-based. Conditions: Homo sapiens, NCI-H69, PARPi alone for 72 h, 3 independent experiments. The protocol: as §1
The next data set concerns bone marrow and kidney. In words: Histopathology (H&E) after in vivo treatment. More on the design: species or system athymic nude mice. Conditions: H69 cohort, single dose study; day 3 after PRRT; one animal per group. How it is done:
(§2) 10–15 days after xenografting, mice were randomized into 4 (H446) or 6 (H69) groups after stratification for tumor size to ensure a uniform initial tumor size distribution (H446: ~ 150 mm^3; H69: ~ 60 mm^3; Supplementary Fig. 2A, B). Mice in the PARPi and combination therapy groups received daily i.p. injections of PARPi on days 1–5 and 8–12 at a dose of 10 mg/kg. […] Length, width and depth of the subcutaneous tumors were measured daily using a caliper and tumor volume was calculated using the ellipsoid formula. Mice were weighed regularly after start of the treatment. Mice were euthanized when they reached pre-defined criteria. During the study, only the criteria of tumor growth (single dimension ≤ 15 mm) or maximum observation time came into effect. In the H69 cohort, one animal per group was euthanized 3 days after PRRT (or equivalent time) and tumor, bone and kidney tissues were processed for histopathology.
All samples were fixated in 4% PFA for 24 h and subsequently stored in 70% ethanol at 4 °C until the radioactivity had fully decayed. Samples containing bone for bone marrow analysis were decalcified using OSTEOSOFT® (Merck) solution. Formalin-fixed paraffin embedded (FFPE) tissues were cut into 2 µm sections using a microtome. After deparaffinization and rehydration, tissue sections were subjected to standard H&E staining. Tumor sections were additionally subjected to IHC. […]

Another data set has as its system H446 xenografts. In words: In vivo treatment study, single PRRT dose. Conditions: for tumor doubling time: PARPi 10 mg/kg i.p. days 1–5 and 8–12, PRRT ~40 MBq single dose on day 3, untreated 3.6; for median survival: single PRRT dose study, untreated 12 days. Further details: species or system athymic nude mice. How it is done:
(§3) Authorization for all animal experiments was obtained from the Regierung von Oberbayern. Mice were housed under specific-pathogen free conditions with access to mouse chow and water ad libitum. Female 7–8 weeks old athymic nude mice (Crl:NU/NCr-Foxn1nu, Charles River Laboratories, Sulzfeld) were subcutaneously injected with 1–4 × 10^6 H69 or H446 cells in 1:1 RPMI-1640 medium:Matrigel (Corning Inc., #11543550). Animals were regularly monitored as defined in the license.
as §2

In data set [4] the test system is H69 xenografts. In words: In vivo treatment study, fractionated PRRT dose. More on the design: species or system athymic nude mice. The following applies: three-fractionated arm: 3 × 20 MBq PRRT days 3, 9, 15, Olaparib 10 mg/kg i.p. days 1–5, 7–11, 13–17, untreated 27 days. The protocol:
as §3
Prior to the beginning of treatment, mice were randomly assigned to 7 treatment groups (n = 5–6 animals/group) with an initial mean tumor volume of approx. 50 mm^3 per group (Supplementary Fig. 2C). […] Body weight and tumor volumes were determined every 2–3 days. Animals were sacrificed when pre-defined endpoint criteria or humane endpoint was reached. In this study, only the pre-defined endpoint, a tumor volume of 1000 mm^3 with a maximal size of ≤ 15 mm in a single dimension, was reached. After a maximum observation period of 4 weeks after the last treatment, the study terminated in accordance with the animal protocol.

For the next data set, the system named is SCLC. Conditions: six SCLC patients; no response on CT scans; cited from earlier work. The text has this: An alternative therapeutic approach for extended-stage disease could be peptide-receptor radionuclide therapy (PRRT) with somatostatin receptor (SSTR) ligands. The vast majority of SCLC (> 80%) express neuroendocrine markers, and about 50% of all SCLCs express significant levels of somatostatin-receptor type 2 (SSTR2). […] To date, clinical outcomes of retrospective series, which investigated SSTR2-targeted PRRT in SCLC have been rather inconclusive. In one trial, six patients treated with ^90Y-D ...

What is called IC50 is the concentration at which inhibition is half-maximal. For `O=C(c1cc(Cc2n[nH]c(=O)c3ccccc23)ccc1F)N1CCN(C(=O)C2CC2)CC1` [Olaparib], in the data set on H446 cells [1], the “mean surviving fraction, of untreated cells” value was determined as 7%. The tumor doubling time with H69 xenografts [2] was determined as 4.0 days. The “time after start of treatment to mean tumor volume of 400 mm^3” value (from here on “time after start of treatment”) with H69 xenografts [2] (single PRRT dose study) is 13 days. The 50% inhibitory concentration (IC50) in the data set on H446 cells [3] and with H69 cells was 20 to 40 µM in each case.
For `CNCc1ccc(-c2[nH]c3cc(F)cc4c3c2CCNC4=O)cc1` [Rucaparib], in the data set with bone marrow and kidney, the “angiectasis in the bone marrow (H&E)” value is reported as “low levels of angiectasis” and the “bone marrow cellularity (H&E)” value was “slight bone marrow hypercellularity”. The “mean surviving fraction, of untreated cells” value with H446 cells [1] is given as 13%. Further, in the data set with H446 xenografts, the tumor doubling time is 3.9 days and the median survival was 13 days. Besides, the tumor doubling time in the data set with H69 xenografts [2] turned out to be 4.1 days. Also, in the data set on H69 xenografts [2] (single PRRT dose study), the “time after start of treatment” value was 13 days. For the same molecule, in the data set on H446 cells [3], the IC50 lay in the range of 20 to 40 µM. Besides, in the data set on H69 cells, the half-inhibitory concentration (IC50) was 20 to 40 µM.
On to `C[C@@H](O)[C@@H]1NC(=O)[C@H](CCCCN)NC(=O)[C@@H](Cc2c[nH]c3ccccc23)NC(=O)[C@H](Cc2ccc(O)cc2)NC(=O)[C@@H](NC(=O)[C@@H](Cc2ccccc2)NC(=O)CN2CCN(CC(=O)O)CCN(CC(=O)O)CCN(CC(=O)O)CC2)CSSC[C@@H](C(=O)N[C@H](CO)[C@@H](C)O)NC1=O` [[^177Lu]Lu-DOTA-TOC, metal not drawn], for which the tumor doubling time with H446 xenografts is listed as 3.7 days; in the data set with H69 xenografts [2], 6.4 days. Also, the median survival is 11 days with H446 xenografts; 24 days in the data set on H69 xenografts [2] (single PRRT dose study, untreated 18 days); 34 days in the data set on H69 xenografts [4]. Moreover, the “time after start of treatment” value in the data set on H69 xenografts [2] (single PRRT dose study) is on record as 17 days.
`C[C@@H](O)[C@@H]1NC(=O)[C@H](CCCCN)NC(=O)[C@@H](Cc2c[nH]c3ccccc23)NC(=O)[C@H](Cc2ccc(O)cc2)NC(=O)[C@@H](NC(=O)[C@@H](Cc2ccccc2)NC(=O)CN2CCN(CC(=O)[O-])CCN(CC(=O)[O-])CCN(CC(=O)[O-])CC2)CSSC[C@@H](C(=O)N[C@H](CO)[C@@H](C)O)NC1=O.[90Y+3]` [^90Y-DOTATOC]: in the data set on SCLC, the median progression-free survival is 38 days.

The values above are taken from publication PMC11527929 (European Journal of Nuclear Medicine and Molecular Imaging, 2024).
